This note sets out measurements from ChEMBL document CHEMBL3853302, “Anti-inflammatory and Quinone Reductase Inducing Compounds from Fermented Noni (Morinda citrifolia) Juice Exudates” (J Nat Prod, 2016).

Structures are written as SMILES. The source made the active and inactive calls. The calls are words filed in the database; no cut-off is given here.

For one data set, the system named is HEK293. The data set can be described thus: Inhibition of TNF-alpha-activated NFkappaB (unknown origin) expressed in HEK293 cells at 50 uM after 6 hrs by luciferase reporter gene assay relative to control. The data set is classed as cell-based. Conditions: Homo sapiens. (A reporter such as luciferase makes a cellular process visible.)
A short description of data set [1]: Toxicity in HEK293 cells assessed as decrease in cell survival at 50 uM. The format is cell-based. Conditions: human, hek293, 50 µM.
Data set [2] can be described thus: Induction of quinone reductase-1 in mouse Hepa-1c1c7 cells assessed as reduction of 3-(4,5-dimethylthiazol-2-yl)-2,5-diphenyltetrazolium bromide at 50 uM after 48 hrs by crystal violet staining-based assay relative to control.
The nature of data set [3]: Inhibition of TNF-alpha-activated NFkappaB (unknown origin) transfected in HEK293 cells after 6 hrs by luciferase reporter gene assay. The data set is classed as cell-based. Particulars: Homo sapiens, HEK293, 6 h.

Usually inhibition stands for the drop in the measured response relative to a control, in per cent. High values mean a strong effect, low ones a weak effect. Regarding `C[C@@H]1O[C@@H](OC[C@H]2O[C@@H](Oc3c(-c4ccc(O)cc4)oc4cc(O)cc(O)c4c3=O)[C@H](O)[C@@H](O)[C@@H]2O)[C@H](O)[C@H](O)[C@H]1O` [NICOTIFLOROSIDE], the inhibition with HEK293 is 62%. The Activity entry in data set [1] was “Non-Toxic”.

On to `COc1cc2oc(=O)ccc2cc1O[C@@H]1O[C@H](CO)[C@@H](O)[C@H](O)[C@H]1O`, for which, in data set [2], the result was Active. `O=C1O[C@@H]2[C@@H](O)CO[C@]2(O)[C@@]1(O)C/C=C/c1ccc(O)c(O)c1` gave an inhibition in the data set on HEK293 of 70%. Besides, in data set [1], the Activity entry was “Non-Toxic”. In the case of `CCCCO[C@H]1C=C(CO)[C@H]2[C@H](O[C@@H]3O[C@H](CO)[C@@H](O)[C@H](O)[C@H]3O)OC=C(C(=O)O)[C@H]21`, the fold change (FC) in data set [2] came to 2.3. Turning to `COC(=O)C1=CO[C@@H](O[C@@H]2O[C@H](CO)[C@@H](O)[C@H](O)[C@H]2O)[C@@H]2C(CO)=C[C@@H](O)[C@H]12`, the fold change (FC) in data set [2] stood at 2.5. The term IC50 denotes the concentration needed to halve the response being measured. High values mean a need for much substance, low ones inhibition by little substance. Consider `Cc1ccc(S(=O)(=O)N[C@@H](Cc2ccccc2)C(=O)CCl)cc1` [TPCK], for which, in data set [3], the IC50 was determined as 3.8 µM.
